Measured values from PMC12059162 (Scientific Reports, 2025).
Marks after values point to notes of the source that are not given here.

Tests used:
DR4 = assay: Human Apoptosis Array in PANC-1 cells; settings: PANC-1, 0.5 µM, 72 h
pro-caspase-3 = assay: Human Apoptosis Array in PANC-1 cells; settings: PANC-1, 0.5 µM, 72 h
SMAC = assay: Human Apoptosis Array in PANC-1 cells; settings: PANC-1, 0.5 µM, 72 h
HSP60 = assay: Human Apoptosis Array in PANC-1 cells; settings: PANC-1, 0.5 µM, 72 h
phospho-p53 (S46) = assay: Human Apoptosis Array in PANC-1 cells; settings: PANC-1, 0.5 µM, 72 h
TRAIL = assay: qPCR apoptotic gene expression in PANC-1 cells; settings: PANC-1, 25 µM
A2058 cells = assay: alamarBlue cell viability; settings: Homo sapiens, A2058, 72 h; for IC50: read-out: IC50 values (μM) 72 hours; for viability at 0.5 µM / viability at 10 µM / viability at 25 µM: read-out: Viability (%) after 72-h treatment
cIAP-1 = assay: Human Apoptosis Array in PANC-1 cells; settings: PANC-1, 0.5 µM, 72 h
COLO-205 cells = assay: alamarBlue cell viability; settings: Homo sapiens, COLO 205, 72 h; for viability at 0.5 µM / viability at 10 µM / viability at 25 µM: read-out: Viability (%) after 72-h treatment
phospho-p53 (S15) = assay: Human Apoptosis Array in PANC-1 cells; settings: PANC-1, 0.5 µM, 72 h
PANC-1 cells [1] = assay: Annexin-V/7AAD early and late apoptosis flow cytometry; format: cell-based, human; settings: PANC-1, 0.5 µM, 72 h; for Ratio of late apoptotic cells: control 0.9%; for Ratio of AnnexinV+ and 7AAD- (early apoptotic) cells: control 21.1%
Experimental: For apoptosis measurements, Annexin-V positive/7AAD (7-Aminoactinomycin D) negative, early apoptotic and Annexin-V/ 7AAD double positive, late apoptotic cells were differentiated using a BD FACSCalibur (BD FACSCalibur, Becton-Dickinson, San Jose, CA, USA) flow cytometer[49],[50]. […] After 24, 48, and 72 h treatment, cells were harvested with 300 µL TrypLE (Sigma Ltd. St. Louis, MO, USA). Fresh cell culture medium was then added to stop the effect of TrypLE and the harvested cells were centrifuged for 5 min (300 g). Then, the supernatant was removed, and cells were resuspended in 300 µL of Annexin binding buffer (Sony Biotechnology, Weybridge, UK). For labelling, 3–3 µL of Annexin-V-FITC (Sony Biotechnology, Weybridge, UK) and 7AAD (Sony Biotechnology, Weybridge, UK) were added, followed by 10 min incubation at room temperature in the dark. For flow cytometric analysis (BD FACSCalibur, Becton–Dickinson, San Jose, CA, USA), a minimum of 10^4 cells/sample was measured. Annexin-V was detected using the FL-1 channel (530/30), and 7AAD was detected using the FL-3 channel (670 LP). In each treatment group, 3 parallel samples were analysed. The results were evaluated using Flowing Software 2.5.1 (Turku Centre of Biotechnology, Turku, Finland).

MIA PaCa-2 cells [2] = assay: Cell cycle analysis (PI, flow cytometry); settings: MIA PaCa-2, 0.5 µM; for Effect on cell cycle: 48 h
[3] = alamarBlue cell viability, cardiotoxicity; settings: mouse, HL-1 cardiomyocytes
DR5 = assay: qPCR apoptotic gene expression in PANC-1 cells; settings: PANC-1, 25 µM
EBC-1 cells = assay: alamarBlue cell viability; settings: for viability at 0.5 µM: read-out: Viability (%) after 72-h treatment, EBC-1, 0.5 μM, 72 h, mean ± SD (n = 3); for viability at 10 µM: read-out: Viability (%) after 72-h treatment, EBC-1, 10 μM, 72 h, mean ± SD (n = 3); for viability at 25 µM: read-out: Viability (%) after 72-h treatment, EBC-1, 25 μM, 72 h, mean ± SD (n = 3)
MIA PaCa-2 cells [4] = assay: alamarBlue cell viability; settings: Homo sapiens, MIA PaCa-2, 72 h; for viability at 0.5 µM / viability at 10 µM / viability at 25 µM: read-out: Viability (%) after 72-h treatment
PANC-1 cells [5] = assay: Holographic microscopy morphometry (HoloMonitor M4); format: cell-based, human; settings: 72 h
Experimental: To follow the morphometric changes, a holographic transmission microscope (HoloMonitor M4; Phase Holographic Imaging AB, Lund, Sweden) was used, which uses a laser to produce 3D images of the cells[51],[52]. This […] imaging technique allows us to monitor cell morphological changes in real-time. First, the cells were seeded at a concentration of 3.5 × 10^5 cells/flask/4000 µL cell culture medium. […] At least 5 images were taken from each culture dish, taking care to assess different fields of view. These images were evaluated using the microscope software (Hstudio M4). We assessed the average area and the average optical thickness of the cells.

[6] = alamarBlue cell viability, healthy cells; settings: human, NHDF cells
PANC-1 cells [7] = assay: xCELLigence SP impedimetric cell viability; settings: for IC50 / viability at 0.5 µM / viability at 10 µM / viability at 25 µM: Homo sapiens, PANC-1, 72 h; for IC50: read-out: IC50 values (μM) 72 hours; for viability at 0.5 µM: read-out: Viability (%) after 72-h treatment, PANC-1, 0.5 μM, 72 h, mean ± SD (n = 3); for viability at 10 µM: read-out: Viability (%) after 72-h treatment, PANC-1, 10 μM, 72 h, mean ± SD (n = 3); for viability at 25 µM: read-out: Viability (%) after 72-h treatment, PANC-1, 25 μM, 72 h, mean ± SD (n = 3)
p53 = assay: qPCR apoptotic gene expression in PANC-1 cells; settings: PANC-1, 25 µM, normalised to DMSO control
PANC-1 cells [8] = assay: Cell cycle analysis (PI, flow cytometry); settings: for Effect on cell cycle: PANC-1, 0.5 µM, 48 h; for Increase in cell number in the G2/M phase: PANC-1, 10 and 25 µM, 72 h
XIAP = assay: Human Apoptosis Array in PANC-1 cells; settings: PANC-1, 0.5 µM, 72 h
FADD = assay: Human Apoptosis Array in PANC-1 cells; settings: PANC-1, 0.5 µM, 72 h
[9] = read-out: IC50 values (μM) 72 hours

SMILES: O=C1C2=C(CCN(Cc3ccccc3)C2)N2CCN=C2N1Cc1cccc(F)c1 [TBP-135]
- DR4 protein level (DR4): significantly increased
- pro-caspase-3 protein level (pro-caspase-3): significantly increased
- SMAC protein level (SMAC): significantly increased
- HSP60 protein level (HSP60): significantly increased
- phospho-p53 (S46) protein level (phospho-p53 (S46)): significantly increased
- TRAIL mRNA expression (TRAIL; 3 h, normalised to DMSO control): 2.4 fold
- IC50 (A2058 cells): 1.75 µM
- viability at 0.5 µM (A2058 cells): 74.9 ± 1.1%
- viability at 10 µM (A2058 cells): 47 ± 4.7%
- viability at 25 µM (A2058 cells): 46.8 ± 2.9%
- cIAP-1 protein level (cIAP-1): significantly increased
- viability at 0.5 µM (COLO-205 cells): 74.7 ± 0.6%
- viability at 10 µM (COLO-205 cells): 52.6 ± 4.1%
- viability at 25 µM (COLO-205 cells): 54.2 ± 3.2%
- phospho-p53 (S15) protein level (phospho-p53 (S15)): significantly increased
- Early apoptotic cells, fold increase (PANC-1 cells [1]): 2.5 fold
- Late apoptotic cells, fold increase (PANC-1 cells [1]): 3.5 fold
- Ratio of late apoptotic cells (PANC-1 cells [1]): 3.2%
- Ratio of AnnexinV+ and 7AAD- (early apoptotic) cells (PANC-1 cells [1]): 53.5%
- Effect on cell cycle (MIA PaCa-2 cells [2]): did not affect
- viability at 72 h, 0.5 µM [3]: 98.8 ± 1.5%
- viability at 72 h, 10 µM [3]: 86.8 ± 3.2%
- viability at 72 h, 25 µM [3]: 88.3 ± 2.8%
- DR5 mRNA expression (DR5; 3 h): significantly upregulated
- DR5 mRNA expression (DR5; 24 h, normalised to DMSO control): 5.9 fold
- IC50 (EBC-1 cells; Homo sapiens, EBC-1, 72 h, read-out: IC50 values (μM) 72 hours): 2.5 µM
- viability at 0.5 µM (EBC-1 cells; Homo sapiens, EBC-1, 72 h): 66.6 ± 4.1%
- viability at 10 µM (EBC-1 cells; Homo sapiens, EBC-1, 72 h): 71.8 ± 31.1%
- viability at 25 µM (EBC-1 cells; Homo sapiens, EBC-1, 72 h): 48 ± 4%
- viability at 0.5 µM (MIA PaCa-2 cells [4]): 63.5 ± 2.6%
- viability at 10 µM (MIA PaCa-2 cells [4]): 62.7 ± 7.8%
- viability at 25 µM (MIA PaCa-2 cells [4]): 65.5 ± 7.9%
- Average cell area, fold decrease vs DMSO (PANC-1 cells [5]; PANC-1, 0.5 µM): 1.9 fold
- Average optical thickness, fold increase vs DMSO (PANC-1 cells [5]; PANC-1, 0.5 µM): 4.1 fold
- Average optical thickness (PANC-1 cells [5]; PANC-1, 0.5 µM, DMSO 1.45 μm): 5.9 μm
- Average cell area (PANC-1 cells [5]; PANC-1, 0.5 µM, DMSO 630 µm^2): 338.5 µm^2
- viability at 72 h, 0.37 µM [6]: 111 ± 2.9%
- viability at 72 h, 8.6 µM [6]: 65.9 ± 1.8%
- viability at 72 h, 25 µM [6]: 71.4 ± 12.3%
- IC50 (PANC-1 cells [7]): 1.8 µM
- viability at 0.5 µM (PANC-1 cells [7]): 106 ± 2.4%
- viability at 10 µM (PANC-1 cells [7]): 8.8 ± 0.1%
- viability at 25 µM (PANC-1 cells [7]): 9.2 ± 4.6%
- p53 mRNA expression (p53; 24 h): 2.9 fold
- Effect on cell cycle (PANC-1 cells [8]): G1 phase block
- Increase in cell number in the G2/M phase (PANC-1 cells [8]): 2.2 fold

SMILES: O=C1C2=C(CCN(Cc3ccccc3)C2)N2CCN=C2N1Cc1ccc(F)cc1 [TBP-134]
- DR4 protein level (DR4): significant increase
- pro-caspase-3 protein level (pro-caspase-3): decrease
- XIAP protein level (XIAP): decrease
- HSP60 protein level (HSP60): significant increase
- phospho-p53 (S46) protein level (phospho-p53 (S46)): decrease
- TRAIL induction (mRNA) (TRAIL; any of the time points (3-48 h)): not detected
- IC50 (A2058 cells): 0.34 µM
- viability at 0.5 µM (A2058 cells): 51.4 ± 2.4%
- viability at 10 µM (A2058 cells): 47.7 ± 3.5%
- viability at 25 µM (A2058 cells): 44.7 ± 2.8%
- cIAP-1 protein level (cIAP-1): undetectable
- IC50 (COLO-205 cells; [9]): 0.25 µM
- viability at 0.5 µM (COLO-205 cells): 45.5 ± 1.3%
- viability at 10 µM (COLO-205 cells): 48.8 ± 1.6%
- viability at 25 µM (COLO-205 cells): 54.3 ± 0.6%
- phospho-p53 (S15) protein level (phospho-p53 (S15)): decrease
- Early apoptotic cells, fold increase (PANC-1 cells [1]): 2.1 fold
- Late apoptotic cells, fold increase (PANC-1 cells [1]): 4.2 fold
- Ratio of late apoptotic cells (PANC-1 cells [1]): 3.8%
- Ratio of AnnexinV+ and 7AAD- (early apoptotic) cells (PANC-1 cells [1]): 43.8%
- Effect on cell cycle (MIA PaCa-2 cells [2]): strong G2/M phase arrest
- subG1 phase (percentage of cells) (MIA PaCa-2 cells [2]; 72 h, control 5.6%): 20.8%
- viability at 72 h, 0.5 µM [3]: 89.9 ± 5.2%
- viability at 72 h, 10 µM [3]: 88.4 ± 5%
- viability at 72 h, 25 µM [3]: 82 ± 2.3%
- DR5 mRNA expression (DR5; 12 h, normalised to DMSO control): 2.3 fold
- Viability (%) after 72-h treatment (EBC-1 cells; EBC-1, 0.5 μM, 72 h, mean ± SD (n = 3), 0.5 µM): 52.3 ± 1.5^z %
- viability at 0.5 µM (EBC-1 cells; Homo sapiens, EBC-1, 72 h): 52.2%
- viability at 10 µM (EBC-1 cells; Homo sapiens, EBC-1, 72 h): 51.7 ± 0.7%
- viability at 25 µM (EBC-1 cells; Homo sapiens, EBC-1, 72 h): 50.5 ± 2%
- IC50 (MIA PaCa-2 cells [4]; [9]): 0.67 µM
- viability at 0.5 µM (MIA PaCa-2 cells [4]): 48.9 ± 2.9%
- viability at 10 µM (MIA PaCa-2 cells [4]): 65 ± 4.9%
- viability at 25 µM (MIA PaCa-2 cells [4]): 59 ± 5.5%
- Average cell area (PANC-1 cells [5]; PANC-1, 25 µM): 376 µm^2
- Average cell area, fold decrease vs DMSO (PANC-1 cells [5]; PANC-1, 25 µM): 1.7 fold
- FADD protein level (FADD): decrease
- viability at 72 h, 0.5 µM [6]: 61.5 ± 0.5%
- viability at 72 h, 10 µM [6]: 46.2 ± 3.4%
- viability at 72 h, 25 µM [6]: 48.3 ± 1.2%
- IC50 (PANC-1 cells [7]): 0.35 µM
- viability at 0.5 µM (PANC-1 cells [7]): 13.4%
- viability at 10 µM (PANC-1 cells [7]): 7.4 ± 0.3%
- viability at 25 µM (PANC-1 cells [7]): 6.1 ± 0.9%
- Viability (%) after 72-h treatment (PANC-1 cells [7]; PANC-1, 0.5 μM, 72 h, mean ± SD (n = 3), 0.5 µM): 13.2 ± 1.4^z %
- p53 mRNA expression (p53; 48 h): 3.7 fold
- Effect on cell cycle (PANC-1 cells [8]): strong G2/M phase arrest
- Increase in cell number in the G2/M phase (PANC-1 cells [8]): 2.2 fold
